ChEMBL document CHEMBL6103537 (J Med Chem, 2025)
Active and inactive are the calls of the source. The rule behind the calls is not given here.

Tests used:
[1] = target: T1, Protein cereblon/Signal transducer and activator of transcription 6 (Homo sapiens, UniProt P42226+Q96SW2); experiment: PROTAC activity at STAT6/CRBN in human MV4-11 cells assessed as reduction in STAT6 level at 5 uM incubated for 12 hrs by Western blot analysis relative to control; type: cell-based
[2] = target: T2, Protein cereblon/Signal transducer and activator of transcription 1-alpha/beta (Homo sapiens) (UniProt P42224+Q96SW2); experiment: PROTAC activity at STAT1/CRBN in human MV4-11 cells assessed as reduction in STAT1 level at upto 10 uM incubated for 12 hrs by Western blot analysis; type: cell-based
[3] = target: Protein cereblon/Signal transducer and activator of transcription 5A/Signal transducer and activator of transcription 5B (Homo sapiens) (UniProt P42229+P51692+Q96SW2); experiment: PROTAC activity at STAT5 at residue Y694/CRBN in human MV4-11 cells assessed as reduction in STAT5 level at upto 10 uM incubated for 12 hrs by Western blot analysis; type: cell-based
[4] = target: Protein cereblon/Signal transducer and activator of transcription 4 (Homo sapiens) (UniProt Q96SW2+Q14765); experiment: PROTAC activity at STAT4/CRBN in human MV4-11 cells assessed as reduction in STAT4 level at 10 uM incubated for 12 hrs by Western blot analysis; type: cell-based
[5] = target: T2, Protein cereblon/Signal transducer and activator of transcription 1-alpha/beta (Homo sapiens); experiment: PROTAC activity at STAT1/CRBN in human PBMC cells assessed as reduction in STAT1 level at 10 uM incubated for 18 hrs by Western blot analysis relative to control; type: cell-based
[6] = target: T1, Protein cereblon/Signal transducer and activator of transcription 6; experiment: PROTAC activity at STAT6 at Y641 residue/CRBN in human L-1236 cells assessed as reduction in STAT6 level incubated for 24 hrs by Western blot analysis; type: cell-based; conditions: dose 10.0 µM
[7] = target: T1, Protein cereblon/Signal transducer and activator of transcription 6; experiment: PROTAC activity at STAT6 at Y641 residue/CRBN in human L-1236 cells assessed as reduction in STAT6 level at 10 uM incubated for 24 hrs by Western blot analysis; type: cell-based
[8] = target: T2, Protein cereblon/Signal transducer and activator of transcription 1-alpha/beta (Homo sapiens); experiment: PROTAC activity at STAT1/CRBN in human L-1236 cells assessed as reduction in STAT1 level at 10 uM incubated for 24 hrs by Western blot analysis; type: cell-based
[9] = target: Protein cereblon/Signal transducer and activator of transcription 3 (Homo sapiens) (UniProt P40763+Q96SW2); experiment: PROTAC activity at STAT3/CRBN in human L-1236 cells assessed as reduction in STAT3 level at 10 uM incubated for 24 hrs by Western blot analysis; type: cell-based
[10] = Downregulation of EPB41L1 level in human PBMC cells at 5 uM incubated for 18 hrs by Western blot analysis relative to control; type: functional
[11] = Downregulation of KRT1 level in human PBMC cells at 5 uM incubated for 18 hrs by Western blot analysis relative to control; type: functional
[12] = target: T1, Protein cereblon/Signal transducer and activator of transcription 6; experiment: PROTAC activity at STAT6/CRBN in human MV4-11 cells assessed as reduction in STAT6 level at 2 uM measured upto 1200 mins in presence of […] by HiBiT bioluminescence assay; type: cell-based
[13] = target: Protein cereblon/Zinc finger protein Helios (Homo sapiens) (UniProt Q96SW2+Q9UKS7); experiment: PROTAC activity at CRBN/IKZF2 in human Jurkat cells assessed as degradation of IKZF2 protein at 0.01 to 10 uM incubated for 20 hrs by Western blotting analysis; type: cell-based; conditions: dose 0.01-10 µM
[14] = target: Protein cereblon/Eukaryotic peptide chain release factor GTP-binding subunit ERF3A (Homo sapiens) (UniProt Q96SW2+P15170); experiment: PROTAC activity at CRBN/GSPT1 in human Jurkat cells assessed as degradation of GSPT1 protein at 0.01 to 10 uM incubated for 20 hrs by Western blotting analysis; type: cell-based; conditions: dose 0.01-10 µM
[15] = Metabolic stability in dog liver microsome assessed as parent compound remaining measured at 45 mins in presence of NADPH by LC-MS/MS analysis; type: ADME, Canis lupus familiaris; conditions: liver microsomes, read-out: Stability
[16] = Metabolic stability in rat liver microsome assessed as parent compound remaining measured at 30 mins in presence of NADPH by LC-MS/MS analysis; type: ADME; conditions: liver microsomes, read-out: Stability
[17] = Metabolic stability in rat liver microsome assessed as parent compound remaining measured at 45 mins in presence of NADPH by LC-MS/MS analysis; type: ADME; conditions: liver microsomes, read-out: Stability
[18] = Metabolic stability in mouse liver microsome assessed as parent compound remaining measured at 5 mins in presence of NADPH by LC-MS/MS analysis; type: ADME; conditions: liver microsomes, read-out: Stability
[19] = Metabolic stability in mouse liver microsome assessed as parent compound remaining measured at 15 mins in presence of NADPH by LC-MS/MS analysis; type: ADME; conditions: liver microsomes, read-out: Stability
[20] = Metabolic stability in mouse liver microsome assessed as parent compound remaining measured at 45 mins in presence of NADPH by LC-MS/MS analysis; type: ADME; conditions: liver microsomes, read-out: Stability
[21] = Metabolic stability in dog liver microsome assessed as half life measured upto 60 mins in presence of NADPH by LC-MS/MS analysis; type: ADME, Canis lupus familiaris; conditions: liver microsomes
[22] = Metabolic stability in mouse liver microsome assessed as half life measured upto 60 mins in presence of NADPH by LC-MS/MS analysis; type: ADME; conditions: liver microsomes
[23] = Stability in human plasma assessed as parent compound remaining measured at 15 mins by LC-MS/MS analysis; type: ADME, cell-free; conditions: read-out: Stability
[24] = Stability in human plasma assessed as parent compound remaining measured at 120 mins by LC-MS/MS analysis; type: ADME, cell-free; conditions: read-out: Stability
[25] = Stability in dog plasma assessed as parent compound remaining measured at 5 mins by LC-MS/MS analysis; type: ADME, cell-free, Canis lupus familiaris; conditions: read-out: Stability
[26] = Stability in dog plasma assessed as parent compound remaining measured at 15 mins by LC-MS/MS analysis; type: ADME, cell-free, Canis lupus familiaris; conditions: read-out: Stability
[27] = Stability in monkey plasma assessed as parent compound remaining measured at 5 mins by LC-MS/MS analysis; type: ADME, cell-free, Macaca mulatta; conditions: rhesus monkey, read-out: Stability
[28] = Stability in monkey plasma assessed as parent compound remaining measured at 30 mins by LC-MS/MS analysis; type: ADME, cell-free, Macaca mulatta; conditions: rhesus monkey, read-out: Stability
[29] = Stability in monkey plasma assessed as parent compound remaining measured at 60 mins by LC-MS/MS analysis; type: ADME, cell-free, Macaca mulatta; conditions: rhesus monkey, read-out: Stability
[30] = Stability in rat plasma assessed as parent compound remaining measured at 60 mins by LC-MS/MS analysis; type: ADME, cell-free; conditions: read-out: Stability
[31] = Stability in rat plasma assessed as parent compound remaining measured at 120 mins by LC-MS/MS analysis; type: ADME, cell-free; conditions: read-out: Stability
[32] = Stability in mouse plasma assessed as parent compound remaining measured at 120 mins by LC-MS/MS analysis; type: ADME, cell-free; conditions: read-out: Stability
[33] = Stability in dog plasma assessed as half life measured upto 60 mins by LC-MS/MS analysis; type: ADME, cell-free, Canis lupus familiaris
[34] = Stability in rat plasma assessed as half life measured upto 60 mins by LC-MS/MS analysis; type: ADME, cell-free
[35] = target: Protein cereblon/Signal transducer and transcription activator 6 (Mus musculus) (UniProt P52633+Q8C7D2); experiment: In vivo PROTAC activity at STAT6/CRBN in BALB/c mouse assessed as reduction in STAT6 level in lung at 200 mg/kg, ip measured at 6 hrs by Western blot analysis; type: functional, organism-based; design: scale not given: the % may be the effect or the level left

## CC(C)(C)[C@H](NC(=O)c1cc2cc(C(F)(F)P(=O)(O)O)ccc2s1)C(=O)N1C[C@@H](OCCCCCC#Cc2cccc3c2CN(C2CCC(=O)NC2=O)C3=O)C[C@H]1C(=O)N1CCO[C@H](c2ccccc2)C1 (stereo not given in full)
[1]
  Emax: > 95%
[2]
  Activity: No effect
[3]
  Activity: No effect
[4]
  Activity: inactive
[5]
  Activity: No effect
[6]
  Activity: Dose-dependent-effect
[7]
  Activity: No effect
[8]
  Activity: No effect
[9]
  Activity: No effect
[10]
  Activity: 60%
[11]
  Activity: 59%
[12]
  Activity: Active
[13]
  Activity: No effect
[14]
  Activity: No effect
[15]
  remaining at 0.75 h: 93%
[16]
  remaining at 0.5 h: 96%
[17]
  remaining at 0.75 h: 90%
[18]
  remaining at 5 min: 98%
[19]
  remaining at 0.25 h: 98%
[20]
  remaining at 0.75 h: 92%
[21]
  half-life: > 2 h
[22]
  half-life: > 2 h
[23]
  remaining at 0.25 h: 94%
[24]
  remaining at 2 h: 74%
[25]
  remaining at 5 min: 82%
[26]
  remaining at 0.25 h: 87%
[27]
  remaining at 5 min: 82%
[28]
  remaining at 0.5 h: 91%
[29]
  remaining at 1 h: 81%
[30]
  remaining at 1 h: 91%
[31]
  remaining at 2 h: 67%
[32]
  remaining at 2 h: 79%
[33]
  half-life: > 2 h
[34]
  half-life: > 2 h
[35]
  Activity: > 90%
